Assay results from ChEMBL document CHEMBL3390839, “Triazolopyrimidinones as -secretase modulators: structureactivity relationship, modulator profile, and in vivo profiling” (Medchemcomm, 2013).
Converted amounts (≈) assume the structure as drawn. The source made the active and inactive calls. The rule behind the calls is not given here.

Tests used:
[1] = Solubility of the compound; type: physicochemical
[2] = Permeability across apical to basolateral side in human Caco2 cells; type: ADME, cell-based; details: Caco-2, read-out: permeability
Liver microsome = assay: Intrinsic clearance in human liver microsomes measured pre ug of protein; type: ADME
[3] = Inhibition of gamma-secretase in mouse primary cortical neurons cells assessed as amyloid beta42 production after 5 days by ELISA; type: cell-based, Cerebral cortex neuron; details: for pIC50: cerebral cortex neuron
[4] = Permeability across basolateral to apical side in human Caco2 cells; type: ADME, cell-based; details: Caco-2, read-out: permeability
[5] = Ratio of drug level in brain to plasma in C57BL/6 mouse; type: ADME, organism-based; details: brain and plasma, read-out: BPR
[6] = molecular target: Voltage-gated inwardly rectifying potassium channel KCNH2 (Homo sapiens, UniProt Q12809); assay: Inhibition of human ERG
Gamma-secretase = assay: Inhibition of human gamma-secretase in HEK-APPswe cells assessed as amyloid beta42 production by electrochemiluminescence assay; type: cell-based
[7] = Oral bioavailability in C57BL/6 mouse at 10 umol/kg; type: ADME, organism-based; details: in vivo
Mus musculus [8] = assay: Dose normalized AUC in C57BL/6 mouse at 3 umol/kg, iv; type: ADME, organism-based; details: in vivo
[9] = Volume of distribution at steady state in C57BL/6 mouse at 3 umol/kg, iv; type: ADME, organism-based; details: in vivo, read-out: Vdss
[10] = Cmax in C57BL/6 mouse at 10 umol/kg, po; type: ADME, organism-based; design: dose 10 umol/kg, route oral; details: in vivo
[11] = Half life in C57BL/6 mouse at 3 umol/kg, iv; type: ADME, organism-based; details: in vivo
[12] = Half life in C57BL/6 mouse at 10 umol/kg, po; type: ADME, organism-based; details: in vivo
[13] = Clearance in C57BL/6 mouse at 3 umol/kg, iv; type: ADME, organism-based; details: in vivo
Mus musculus [14] = assay: Dose normalized AUC in C57BL/6 mouse at 10 umol/kg, po; type: ADME, organism-based; details: in vivo
[15] = Tmax in C57BL/6 mouse at 10 umol/kg, po; type: ADME, organism-based; details: in vivo
[16] = molecular target: T1, Gamma-secretase (Homo sapiens) (UniProt Q96BI3+Q9NZ42+Q8WW43+P49768+Q92542+P49810); assay: Inhibition of human gamma-secretase in HEK-APPswe cells assessed as amyloid beta38 production at 10 nM by electrochemiluminescence assay; type: cell-based
[17] = molecular target: T1, Gamma-secretase (Homo sapiens); assay: Inhibition of human gamma-secretase in HEK-APPswe cells assessed as amyloid beta40 production at 10 nM by electrochemiluminescence assay; type: cell-based
[18] = molecular target: T1, Gamma-secretase (Homo sapiens); assay: Inhibition of human gamma-secretase in HEK-APPswe cells assessed as amyloid beta42 production at 10 nM by electrochemiluminescence assay; type: cell-based
[19] = molecular target: T1, Gamma-secretase (Homo sapiens); assay: Inhibition of human gamma-secretase in HEK-APPswe cells assessed as notch processing at 5 uM by electrochemiluminescence assay; type: cell-based
[20] = molecular target: T1, Gamma-secretase (Homo sapiens); assay: Inhibition of human gamma-secretase in HEK-APPswe cells assessed as amyloid beta39 production at 10 nM by electrochemiluminescence assay; type: cell-based
[21] = molecular target: T1, Gamma-secretase (Homo sapiens); assay: Inhibition of human gamma-secretase in HEK-APPswe cells assessed as amyloid beta37 production at 10 nM by electrochemiluminescence assay; type: cell-based
[22] = molecular target: T1, Gamma-secretase (Homo sapiens); assay: Inhibition of human gamma-secretase in HEK-APPswe cells assessed as notch processing at 8 uM by electrochemiluminescence assay; type: cell-based
Mus musculus [23] = assay: Reduction in amyloid beta42 production in C57BL/6 mouse brain at 150 umol/kg, po after 1.5 hrs by ELISA relative to vehicle treated control; type: functional; details: C57BL/6, Brain
Mus musculus [24] = assay: Reduction in amyloid beta42 production in C57BL/6 mouse brain at 50 umol/kg, po after 1.5 hrs by ELISA relative to vehicle treated control; type: functional; details: C57BL/6, Brain

Voltage-gated inwardly rectifying potassium channel KCNH2, sequence (Q12809 whole entry): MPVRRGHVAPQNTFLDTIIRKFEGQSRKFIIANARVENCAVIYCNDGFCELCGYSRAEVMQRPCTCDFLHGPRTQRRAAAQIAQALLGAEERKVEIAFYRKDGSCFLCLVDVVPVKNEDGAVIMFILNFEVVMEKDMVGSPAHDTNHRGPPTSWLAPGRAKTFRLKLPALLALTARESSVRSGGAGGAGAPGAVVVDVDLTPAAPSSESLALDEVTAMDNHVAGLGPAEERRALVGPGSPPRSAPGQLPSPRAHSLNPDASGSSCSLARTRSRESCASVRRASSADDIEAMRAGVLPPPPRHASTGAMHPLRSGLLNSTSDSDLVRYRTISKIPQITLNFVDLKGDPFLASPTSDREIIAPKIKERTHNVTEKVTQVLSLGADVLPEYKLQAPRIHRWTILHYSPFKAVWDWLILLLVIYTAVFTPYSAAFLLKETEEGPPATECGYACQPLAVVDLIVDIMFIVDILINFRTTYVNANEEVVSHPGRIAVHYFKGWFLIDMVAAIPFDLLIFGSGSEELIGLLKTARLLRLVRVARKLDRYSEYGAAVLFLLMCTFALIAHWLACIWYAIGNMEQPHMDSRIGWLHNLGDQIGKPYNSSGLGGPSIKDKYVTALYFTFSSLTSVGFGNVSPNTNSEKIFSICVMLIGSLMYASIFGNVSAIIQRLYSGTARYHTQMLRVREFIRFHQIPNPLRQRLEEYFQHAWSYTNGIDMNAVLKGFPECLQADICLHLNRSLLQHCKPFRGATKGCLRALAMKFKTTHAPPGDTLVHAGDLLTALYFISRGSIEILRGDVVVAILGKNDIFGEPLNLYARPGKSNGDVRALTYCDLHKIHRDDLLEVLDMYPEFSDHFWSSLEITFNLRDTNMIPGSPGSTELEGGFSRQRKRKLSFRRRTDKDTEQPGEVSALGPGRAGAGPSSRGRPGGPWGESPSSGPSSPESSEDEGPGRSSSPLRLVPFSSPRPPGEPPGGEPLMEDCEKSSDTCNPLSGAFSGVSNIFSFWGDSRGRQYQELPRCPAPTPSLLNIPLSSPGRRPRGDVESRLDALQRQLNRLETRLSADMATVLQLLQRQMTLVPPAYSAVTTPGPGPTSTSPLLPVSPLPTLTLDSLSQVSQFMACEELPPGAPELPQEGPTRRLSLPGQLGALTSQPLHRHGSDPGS

SMILES | Papp A→B [2] | CLH (Liver microsome) | Papp B→A [4] | Kp [5] | IC50 [6] | pIC50 (Gamma-secretase) | solubility [1] | bioavailability [7] | AUC/dose (Mus musculus [8]) | pIC50 [3] | Vd [9] | Cmax [10] | half-life [11] | half-life [12] | clearance [13] | AUC/dose (Mus musculus [14]) | Tmax [15] | inhibition [16] | inhibition [17] | inhibition [18] | further results
COc1cc(Nc2nc3n(n2)CCC(=O)N3Cc2ccccc2C)ccc1-c1ccnnc1 | 18 ×10⁻⁶ cm/s | 56 µL/min | 22 ×10⁻⁶ cm/s | 0.11 | 33000 nM | 7.5 | – | – | – | – | – | – | – | – | – | – | – | – | – | – | solubility ([1]; read-out: solubility): < 1 µM; IC50 ([3]; Mus musculus, Cerebral cortex neuron, 120 h): 79.4 nM
COc1cc(Nc2nc3n(n2)C(C2CC2)CCN3CC(C)(C)O)ccc1-n1cnc(C)c1 (stereo in doubt; 42A) [listing 1 of 2 here] | – | 37 µL/min | – | – | – | – | 63 µM (≈ 27.6 µg/mL) | 91% | 0.67 kg·h/L | 7.5 | 1.4 L/kg | 3800 nM | 54 min | 60 min | 25 mL/min/kg | 0.61 kg·h/L | 30 min | – | – | – | –
COc1cc(Nc2nc3n(n2)C(C2CC2)CCN3CC(C)(C)O)ccc1-n1cnc(C)c1 (stereo in doubt; 42A) [listing 2 of 2 here] | – | – | – | – | – | – | – | – | – | – | – | – | – | – | – | – | – | Active | Active | Active | Activity [19]: inactive; inhibition [20]: Active; inhibition [21]: Active
COc1cc(Nc2nc3n(n2)C(C)CC(=O)N3Cc2ccccc2)ccc1-n1cnc(C)c1 (stereo in doubt; 19B) [listing 1 of 2 here] | – | – | – | – | – | – | – | – | – | – | – | – | – | – | – | – | – | inactive | inactive | Active | Activity [22]: inactive; inhibition [20]: inactive; inhibition [21]: inactive
COc1cc(Nc2nc3n(n2)C(C)CC(=O)N3Cc2ccccc2)ccc1-n1cnc(C)c1 (stereo in doubt; 19B) [listing 2 of 2 here] | 22 ×10⁻⁶ cm/s | 52 µL/min | 13 ×10⁻⁶ cm/s | 0.72 | 3700 nM | 8 | 6 µM (≈ 2.66 µg/mL) | 32% | 0.84 kg·h/L | 7.7 | 0.9 L/kg | 1200 nM | 36 min | 312 min | 21 mL/min/kg | 0.27 kg·h/L | 30 min | – | – | – | inhibition in vivo at 150 µmol/kg (Mus musculus [23]): 24%; inhibition in vivo at 50 µmol/kg (Mus musculus [24]): 9%
